ChEMBL document CHEMBL3399999, “Anti-trypanosomal cadinanes synthesized by transannular cyclization of the natural sesquiterpene lactone nobilin” (Bioorg Med Chem, 2015)

Assays:
L6 = experiment: Cytotoxicity against rat L6 cells; type: cell-based
[1] = Selectivity index, ratio of IC50 for rat L6 cells to IC50 for bloodstream forms of Trypanosoma brucei rhodesiense STIB 900; type: toxicity, cell-based; settings: read-out: Ratio IC50
[2] = system: Trypanosoma brucei rhodesiense; experiment: Antiprotozoal activity against bloodstream forms of Trypanosoma brucei rhodesiense STIB 900 after 70 hrs by Alamar blue assay; type: functional, organism-based; settings: STIB 900, 70 h

Structure (SMILES) | IC50 [2] | IC50 (L6) | selectivity ratio [1]
C=C(C(=O)O)[C@H]1[C@@H]2C=C(C)C(=O)C[C@@H]2[C@@H](C)C[C@@H]1OC(=O)/C(C)=C\C | 31.1 µM | 49.1 µM | 1.6
C=C(C(=O)O)[C@H]1[C@@H]2C=C(C)[C@@H](O)C[C@H]2[C@](C)(O)C[C@@H]1OC(=O)/C(C)=C\C | 50.5 µM | > 100 µM | > 2
Nc1nc(N)nc(Nc2ccc([As]3SCC(CO)S3)cc2)n1 (stereo unspecified) [MELARSOPROL] | – | 29.1 µM | > 5000
C=C(C)C(=O)O[C@H]1C/C(C)=C/C[C@H](O)/C(C)=C\C2OC(=O)C(=C)[C@@H]21 (single isomer, unassigned) | 1.54 µM | 9.38 µM | 6.1

Second part, led by results:

IC50 [2] | Structure (SMILES) | IC50 (L6) | selectivity ratio [1]
3.19 µM | C=C1C(=O)O[C@@H]2/C=C(/C)[C@@H](O)C/C=C(\C)C[C@H](OC(=O)/C(C)=C\C)[C@@H]12 [NOBILIN] | 6.64 µM | 2.1
3.48 µM | C=C1C(=O)OC2/C=C(/C)[C@@H](O)C/C=C(\C)C[C@H](OC(=O)/C(C)=C/C)[C@@H]12 (single isomer, unassigned) | 10.2 µM | 2.9
0.46 µM | C=C1C(=O)O[C@@]23C=C(C)[C@@H](O)C[C@@H]2[C@@H](C)C[C@H](OC(=O)/C(C)=C\C)[C@@H]13 | 1.11 µM | 2.4
1.44 µM | C=C1C(=O)O[C@]23C=C(C)[C@@H](O)C[C@@H]2[C@H](C)C[C@H](OC(=O)/C(C)=C\C)[C@@H]13 | 2.12 µM | 1.5
14.8 µM | C=C(C(=O)O)[C@H]1[C@@H]2C=C(C)[C@@H](O)C[C@@H]2[C@](C)(O)C[C@@H]1OC(=O)/C(C)=C\C | 49 µM | 3.3
